Where two headings read alike, the source gives them in different places.
Assays:
[1] = One-photon absorption/emission spectra and fluorescence quantum yield; assay type: physicochemical; details: for Φ, fluorescence quantum yield: ±15%; for pH sensitivity of fluorescence: biologically relevant pH range
Experimental: Absorption spectra were recorded on a Hewlett-Packard 8453 diode array spectrophotometer, and fluorescence spectra were obtained with Amico-Bowman series 2 luminescence spectrometer with a 1-cm standard quartz cell. The fluorescence quantum yield was determined by using Coumarin 307 and Rhodamine B as the reference.

A549 cells [2] = test: Effect of anticancer agents on AG2 uptake by A549 cells
[3] = Measurement of two-photon cross section (TPEF method); assay type: physicochemical; details: for Φδmax, two-photon action cross-section / λmax of the two-photon absorption spectrum / δmax, peak two-photon cross-section: PBS buffer; for δmax, peak two-photon cross-section: ±15%
Experimental: The two-photon cross section (δ) was determined using the femto second (fs) fluorescence measurement technique as described previously. AG1, AG2, Cy3-Glc-α, and 2-NBDG were dissolved in 30 mM PBC buffer (137 mM NaCl, 3 mM KCl, 10 mM Na2HPO4, 2 mM KH2PO4, pH 7.4) at a concentration of 5.0×10^−6 M and then the two-photon induced fluorescence intensity was measured at 740-940 nm by using fluorescein (8.0×10^−5 M, pH=11) as the reference, whose two-photon property has already been well characterized. The intensities of the two photon induced fluorescence spectra of the reference and sample emitted at the same excitation wavelength were determined.
The TPA cross section was calculated according to Eq. 1,
The results are shown in FIG. 1 and the above-described Table 1.

A549 cells [4] = test: Tracer uptake by A549 cells, TPM imaging (optimum concentration); assay type: cell-based; details: for Cell death in A549 cells: 100 μM probe, 30 min; for Uptake rate (time) in A549 cells: A549 cells labeled with tracer
Experimental: (§1) A549 human lung carcinoma cells, HeLa human cervical carcinoma cells, NIH/3T3 murine fibroblast cells, and HEK293 human embryonic kidney cells were obtained from American Type Culture Collection (ATCC, Manassas, Va., USA). A549 cells were cultured in RPMI 1640 (WelGene) supplemented with heat-inactivated 10% FBS (WelGene), penicillin (100 units/mL), and streptomycin (100 μg/mL).
For labeling, the growth medium was removed and replaced with serum-free RPMI 1640 (without D-glucose) (United Search Partners, Austin, Tex., USA).
The cells were treated and incubated with the required concentration of a tracker at 37° C. for 10 min.
Thereafter, the cells were washed three times with phosphate buffered saline (PBS; Gibco) and then imaged.
(§2) For comparison of the relative uptake of AG1 and AG2 per unit cell, the TPEF intensities from regions of interest were chosen without bias from among 40-60 cells as determined by the photomultiplier tube (PMT) and the data were digitalized using Histogram (a program for data analysis).
In determine the optimum concentration for the uptake experiment, TPM images of A549 cells labeled for 30 min with 6, 12.5, 25, 50, and 100 μM of AG1 and AG2 were compared. The image appeared brighter as the probe concentration was increased up to 50 μM; however, at higher concentrations than this, cell death was observed.
Moreover, the uptake rate was faster (600 vs 800 s) and the TPM image was brighter when the cells were labeled with AG2 than when they were treated with AG1 (FIG. 3). Therefore, 50 μM of AG2 was used for the uptake experiments.

[5] = test system: Human colon cancer tissue and normal tissue; test: TPM imaging of AG2 uptake in human colon normal and cancer tissue slices
Experimental: In the present invention, an additional assessment was made of the utility of AG2 in tissue imaging for the diagnosis of colon cancer. In this regard, the images of normal- and cancer-tissue slices from colon-cancer patients were employed. […] The tissues were incubated in artificial cerebrospinal fluid (ACSF) for 4 h at 37° C. in the absence and presence of taxol (50 μM), after which AG2 uptake was monitored with TPM by following the change in TPEF at a depth of 100 μm.
Human colon cancer tissue and normal tissue were obtained from colon cancer patients by conducting colonoscopic examinations and taking samples.
Normal tissues, cancerous tissue, and cancerous tissue containing 50 μM taxol were incubated in artificial cerebrospinal fluid (ACSF) bubbled with 95% O2 and 5% CO2 for 4 hrs at 37° C. The tissues were then washed three times with ACSF, transferred to glass-bottomed dishes (MatTek), added with 50 μM AG2, and observed by TPM.
To determine whether the relative uptake was affected by incubation in ACSF, the same experiment was conducted with normal tissue and colon cancerous tissue obtained immediately after the colonoscopic biopsy.

A549 cells [6] = details: 0.049 µM
[7] = from The Handbook (Molecular Probes); cited from earlier work
[8] = test system: A549, HeLa, HEK293 and NIH/3T3 cells; test: Relative AG2 uptake by cancer and normal cell lines (TPM); assay type: cell-based; details: A549, HeLa vs HEK293, NIH/3T3
Text: In order to assess whether AG2 is selectively taken up by cancer cells, the efficiencies of AG2 uptake by A549 (lung carcinoma cell line), HeLa (cervical cancer cell line), HEK293 (human embryonic kidney 293 cell line), and NIH/3T3 (murine fibroblast cell line) cells were compared. […] Therefore, AG2 can be used for visualizing glucose uptake in living cells by TPM, without subjecting the cells to glucose starvation.
as §1
NIH/3T3 cells, HeLa cells, and HEK293 cells were cultured in DMEM (WelGene) supplemented with heat-inactivated 10% FBS (WelGene), penicillin (100 units/mL), and streptomycin (100 μg/mL). All the cell lines were maintained in a humidified atmosphere of 5% CO2 and 95% air at 37° C. […]
as §2

A549 cells [9] = test: Competition experiment for uptake pathway; assay type: cell-based, human; details: for Reduction of AG2 fluorescence intensity in A549 cells: AG2 50 μM, 10 min
Experimental: To determine whether the intracellular uptake pathway of AG2 is relevant to that of D-glucose, a competition experiment was conducted.
To this end, A549 cells were incubated with AG2 (50 μM) for 10 min in the presence of 0, 10, and 50 mM D-glucose, and 50 mM L-glucose, and relative AG2 uptake was determined by TPM.

A549 cells [10] = test: Viability of A549 cells with CCK-8 kit; assay type: cell-based, human; details: 50 μM, 10 min
Experimental: FIG. 7: Viability of A549 cells in the presence of AG2 as measured by using CCK-8 kit. The cells were incubated with 50 μM AG2 for 10 min.
In order to confirm that the tracer couldn't affect the viability of A549 cells in the incubation condition, a CCK-8 kit (Cell Counting Kit-8, Dojindo, Japan) was used according to the manufacturer's protocol.

## cyanine-3-linked O-1-glycosylated glucose [Cy3-Glc-α, reference compound]
[1]; PBS buffer
  λ(1)max, one-photon absorption maximum: 545 nm
  λflmax, one-photon emission maximum: 555 nm
  Φ, fluorescence quantum yield: 0.01

## COc1ccc(C[C@@H](O)c2cc(OC)c(OC)c(OC)c2)cc1O [Combrestastatin, combretastatin]
A549 cells [2]; agent 2 μM, after 6 h
  AG2 uptake by A549: 70.2%
A549 cells [2]; agent 2 μM, after 12 h
  AG2 uptake by A549: 53.2%

## CC(=O)c1ccc2cc(N(C)CC(=O)NCCOCCOCCNCCOC3OC(CO)C(O)C(O)C3O)ccc2c1 (centres unmarked) [AG1]
[3]
  Φδmax, two-photon action cross-section: 86 GM
  λmax of the two-photon absorption spectrum: 780 nm
  δmax, peak two-photon cross-section: 95 GM
[3]; at 780 nm
  Φδ value from TP action spectrum: approximately 90 GM
[1]; DMF (ETN 0.386)
  λ(1)max, one-photon absorption maximum: 366 nm
  λflmax, one-photon emission maximum: 451 nm
  Φ, fluorescence quantum yield: 1.00
[1]; Dioxane (ETN 0.164)
  λ(1)max, one-photon absorption maximum: 360 nm
  λflmax, one-photon emission maximum: 434 nm
  Φ, fluorescence quantum yield: 0.59
[1]; EtOH (ETN 0.654)
  λ(1)max, one-photon absorption maximum: 364 nm
  λflmax, one-photon emission maximum: 479 nm
  Φ, fluorescence quantum yield: 1.00
[1]; H2O (ETN 1.00)
  λ(1)max, one-photon absorption maximum: 373 nm
  λflmax, one-photon emission maximum: 501 nm
  Φ, fluorescence quantum yield: 0.90
[1]; PBS buffer
  λ(1)max, one-photon absorption maximum: 373 nm
  λflmax, one-photon emission maximum: 501 nm
  Φ, fluorescence quantum yield: 0.90
[1]
  pH sensitivity of fluorescence: pH insensitive
A549 cells [4]
  Cell death in A549 cells: some cell death was observed
  Uptake rate (time) in A549 cells: 800 s

## CC(=O)O[C@H]1C(=O)[C@@]2(C)[C@H]([C@H](OC(=O)c3ccccc3)[C@]3(O)C[C@H](OC(=O)[C@H](O)[C@@H](NC(=O)c4ccccc4)c4ccccc4)C(C)=C1C3(C)C)[C@]1(OC(C)=O)CO[C@@H]1C[C@@H]2O [Taxol, taxol]
A549 cells [2]; A549 cells incubated 1, 3, 6, 12, 24 h with agent
  Cellular uptake of AG2 versus incubation time with agent: lower with longer incubation times
A549 cells [2]; agent 49 nM (second line, r8), after 6 h
  AG2 uptake by A549: 96.7%
A549 cells [2]; agent 49 nM (second line, r8), after 12 h
  AG2 uptake by A549: 81.8%
A549 cells [2]; agent 9.8 μM, after 6 h
  AG2 uptake by A549: 69.5%
A549 cells [2]; agent 9.8 μM, after 12 h
  AG2 uptake by A549: 50.7%
[5]; colon cancer tissue, agent 50 μM for 4 hrs in ACSF, depth 100 μm
  AG2 uptake of cancer tissue pretreated with agent: much slower AG2 uptake than the untreated one
A549 cells [6]; 6 h
  AG2 uptake by A549: 89.6%
A549 cells [6]; 12 h
  AG2 uptake by A549: 69.5%

## O=[N+]([O-])c1ccc(NC2C(O)OC(CO)C(O)C2O)c2nonc12 [2-NBDG, 2-[N-(7-nitrobenz-2-oxa-1,3-diazol-4-yl)-amino]-2-deoxy-D-glucose]
[7]
  λ(1)max, one-photon absorption maximum: 465 nm
  λflmax, one-photon emission maximum: 540 nm

## CC(=O)c1ccc2cc(N(C)CC(=O)N3CCN(CCOC4OC(CO)C(O)C(O)C4O)CC3)ccc2c1 (centres unmarked) [AG2]
[3]
  Φδmax, two-photon action cross-section: 88 GM
  λmax of the two-photon absorption spectrum: 780 nm
  δmax, peak two-photon cross-section: 155 GM
[8]
  Efficiency of AG2 uptake by cell lines: most efficient in A549 and HeLa cells, followed by HEK293 and NIH/3T3 cells
[1]; DMF (ETN 0.386)
  λ(1)max, one-photon absorption maximum: 369 nm
  λflmax, one-photon emission maximum: 449 nm
  Φ, fluorescence quantum yield: 1.00
[1]; Dioxane (ETN 0.164)
  λ(1)max, one-photon absorption maximum: 362 nm
  λflmax, one-photon emission maximum: 425 nm
  Φ, fluorescence quantum yield: 0.72
[1]; EtOH (ETN 0.654)
  λ(1)max, one-photon absorption maximum: 370 nm
  λflmax, one-photon emission maximum: 480 nm
  Φ, fluorescence quantum yield: 0.97
[1]; H2O (ETN 1.00)
  λ(1)max, one-photon absorption maximum: 375 nm
  λflmax, one-photon emission maximum: 501 nm
  Φ, fluorescence quantum yield: 0.56
[1]; PBS buffer
  λ(1)max, one-photon absorption maximum: 375 nm
  λflmax, one-photon emission maximum: 501 nm
  Φ, fluorescence quantum yield: 0.56
[1]
  pH sensitivity of fluorescence: pH insensitive
[5]; colon tissue slices, 50 μM AG2, depth 100 μm
  AG2 uptake in cancer tissue versus normal tissue: much faster than in the normal tissue
A549 cells [9]; medium with 10 mM D-glucose vs glucose-depleted medium
  Reduction of AG2 fluorescence intensity in A549 cells: about 16%
A549 cells [9]; medium with 50 mM D-glucose vs glucose-depleted medium
  Reduction of AG2 fluorescence intensity in A549 cells: ~74%
A549 cells [9]; medium with 50 mM L-glucose
  AG2 fluorescence intensity in A549 cells: not affected
A549 cells [9]; presence of 55 mM D-/L-alanine
  AG2 uptake by A549 cells: not influenced
A549 cells [10]
  Effect on viability of cells (CCK8 kit): negligible toxicity
A549 cells [4]
  Cell death in A549 cells: some cell death was observed
  Uptake rate (time) in A549 cells: 600 s
